Reference: PubChem BioAssay (NCI)
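Assay format: 96-well plates, 48-hour exposure. GI50 marks 50% less growth. At the TGI there is no net growth.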

Assays:
Assay in all cases: DTP human tumour cell line panel, 48 h
[1] = test system: NCI/ADR-RES ovarian
[2] = test system: COLO 205 colon
[3] = test system: NCI-H460 lung
[4] = test system: RXF 393 renal
[5] = test system: HT29 colon
[6] = test system: IGROV1 ovarian
[7] = test system: 786-0 renal
[8] = test system: OVCAR-5 ovarian
[9] = test system: A549 NSCLC
[10] = test system: M14 melanoma
[11] = test system: MCF7 breast
[12] = test system: SF-268 CNS
[13] = test system: UACC-257 melanoma
[14] = test system: HCT-15 colon
[15] = test system: SN12C renal
[16] = test system: SNB-19 CNS
[17] = test system: SNB-75 CNS
[18] = test system: HOP-62 NSCLC
[19] = test system: SK-MEL-2 melanoma
[20] = test system: HOP-92 NSCLC
[21] = test system: OVCAR-4 ovarian
[22] = test system: HCT-116 colon
[23] = test system: K-562 leukemia
[24] = test system: U251 CNS
[25] = test system: UACC-62 melanoma
[26] = test system: MOLT-4 leukemia
[27] = test system: NCI-H226 lung
[28] = test system: HS 578T breast
[29] = test system: RPMI-8226 leukemia
[30] = test system: SF-295 CNS
[31] = test system: MDA-MB-435
[32] = test system: DU-145 prostate
[33] = test system: MDA-MB-231 breast
[34] = test system: SR leukemia
[35] = test system: KM12 colon
[36] = test system: OVCAR-3 ovarian
[37] = test system: CCRF-CEM leukemia
[38] = test system: EKVX NSCLC
[39] = test system: OVCAR-8 ovarian
[40] = test system: SF-539 CNS
[41] = test system: PC-3 prostate
[42] = test system: SK-OV-3 ovarian
[43] = test system: SW-620 colon
[44] = test system: NCI-H522 lung
[45] = test system: UO-31 renal
[46] = test system: A498 renal
[47] = test system: NCI-H23 lung
[48] = test system: BT-549 breast
[49] = test system: HCC-2998 colon
[50] = test system: LOX IMVI melanoma
[51] = test system: SK-MEL-28 melanoma
[52] = test system: TK-10 renal
[53] = test system: SK-MEL-5 melanoma

In the case of `COC(=O)[C@@H](C)C[C@H](Cc1ccccc1)NC(=O)c1csc([C@@H](C[C@H](C(C)C)N(C)C(=O)[C@H](C)NC(=O)[C@H]2CCCCN2C)OC(C)=O)n1`, the GI50 [1] is reported as > 25000 nM, the TGI [1] is reported as > 25000 nM and the GI50 [2] is reported as 1120 nM. For the same molecule, the TGI [2] was 20200 nM, the GI50 [3] was 1180 nM and the TGI [3] was > 25000 nM. For the same molecule, the GI50 [4] was 1000 nM, the TGI [4] was 24200 nM and the GI50 [5] was 816 nM. The TGI [5] was > 25000 nM, the GI50 [6] was 1140 nM and the TGI [6] was > 25000 nM. The GI50 [7] was 1050 nM, the TGI [7] was > 25000 nM and the GI50 [8] was 9480 nM. The TGI [8] was > 25000 nM, the GI50 [9] was 8670 nM and the TGI [9] was > 25000 nM. It also gave a GI50 [10] of 859 nM, a TGI [10] of 11300 nM and a GI50 [11] of 437 nM. The TGI [11] was > 25000 nM, the GI50 [12] was 1650 nM and the TGI [12] was > 25000 nM. The GI50 [13] was > 25000 nM, the TGI [13] was > 25000 nM and the GI50 [14] was 3370 nM. For the same molecule, the TGI [14] was > 25000 nM, the GI50 [15] was 2080 nM and the TGI [15] was > 25000 nM. For the same molecule, the GI50 [16] was 901 nM, the TGI [16] was > 25000 nM and the GI50 [17] was 470 nM. For the same molecule, the TGI [17] was 1710 nM, the GI50 [18] was 3270 nM and the TGI [18] was > 25000 nM. The GI50 [19] was 929 nM, the TGI [19] was > 25000 nM and the GI50 [20] was 982 nM. For the same molecule, the TGI [20] was > 25000 nM, the GI50 [21] was 2050 nM and the TGI [21] was > 25000 nM. For the same molecule, the GI50 [22] was 774 nM, the TGI [22] was > 25000 nM and the GI50 [23] was 278 nM. The TGI [23] was > 25000 nM, the GI50 [24] was 1580 nM and the TGI [24] was > 25000 nM. The GI50 [25] was 1270 nM, the TGI [25] was > 25000 nM and the GI50 [26] was 2220 nM. For the same molecule, the TGI [26] was > 25000 nM, the GI50 [27] was > 25000 nM and the TGI [27] was > 25000 nM. For the same molecule, the GI50 [28] was 1390 nM, the TGI [28] was > 25000 nM and the GI50 [29] was 567 nM. The TGI [29] was > 25000 nM, the GI50 [30] was 3950 nM and the TGI [30] was > 25000 nM. It also gave a GI50 [31] of 121 nM, a TGI [31] of 522 nM and a GI50 [32] of 1050 nM. The TGI [32] was > 25000 nM, the GI50 [33] was 1240 nM and the TGI [33] was > 25000 nM. For the same molecule, the GI50 [34] was 452 nM, the TGI [34] was > 25000 nM and the GI50 [35] was 1110 nM. For the same molecule, the TGI [35] was > 25000 nM, the GI50 [36] was 551 nM and the TGI [36] was > 25000 nM. For the same molecule, the GI50 [37] was 1050 nM, the TGI [37] was > 25000 nM and the GI50 [38] was 5740 nM. The TGI [38] was > 25000 nM, the GI50 [39] was 3670 nM and the TGI [39] was > 25000 nM. For the same molecule, the GI50 [40] was 1420 nM, the TGI [40] was 20600 nM and the GI50 [41] was 821 nM. The TGI [41] was > 25000 nM, the GI50 [42] was 11000 nM and the TGI [42] was > 25000 nM. The GI50 [43] was 861 nM, the TGI [43] was > 25000 nM and the GI50 [44] was 384 nM. For the same molecule, the TGI [44] was 1350 nM, the GI50 [45] was 19200 nM and the TGI [45] was > 25000 nM. For the same molecule, the GI50 [46] was 1870 nM, the TGI [46] was 14100 nM and the GI50 [47] was 7550 nM. For the same molecule, the TGI [47] was > 25000 nM, the GI50 [48] was 979 nM and the TGI [48] was 17500 nM. For the same molecule, the GI50 [49] was 1750 nM, the TGI [49] was > 25000 nM and the GI50 [50] was 1740 nM. For the same molecule, the TGI [50] was > 25000 nM, the GI50 [51] was > 25000 nM and the TGI [51] was > 25000 nM. For the same molecule, the GI50 [52] was > 25000 nM, the TGI [52] was > 25000 nM and the GI50 [53] was 860 nM. For the same molecule, the TGI [53] was > 25000 nM.
